Assay results taken from ChEMBL document CHEMBL1130713, “Development of 2,2-dimethylchromanol cysteinyl LT1 receptor antagonists” (Bioorg Med Chem Lett, 1998).

How the values were obtained:
Rattus norvegicus = test: Hepatic clearance after intravenous administration was evaluated in rat; format: ADME, organism-based, Liver; details: in vivo
[1] = biological target: T1, Cysteinyl leukotriene receptor 1 (Cavia porcellus, UniProt Q2NNR5); test: Antagonism of Cysteinyl leukotriene receptor 1 from guinea pig lung membranes; format: functional, tissue-based
T1 sequence (Q2NNR5 whole entry): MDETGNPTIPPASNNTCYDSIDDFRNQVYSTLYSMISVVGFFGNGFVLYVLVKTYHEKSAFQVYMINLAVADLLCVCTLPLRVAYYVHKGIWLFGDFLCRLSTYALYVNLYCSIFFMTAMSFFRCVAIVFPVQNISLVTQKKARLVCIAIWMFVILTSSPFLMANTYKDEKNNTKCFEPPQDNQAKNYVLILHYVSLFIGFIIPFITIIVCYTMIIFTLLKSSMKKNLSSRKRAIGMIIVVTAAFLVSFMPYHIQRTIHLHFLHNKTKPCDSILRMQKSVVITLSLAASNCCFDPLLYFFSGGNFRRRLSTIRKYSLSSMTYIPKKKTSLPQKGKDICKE

Cavia porcellus [2] = test: Compound was tested for its ability to block antigen induced airway obstruction in guinea pig at dose 1 mg/kg at 1 hr; format: functional
[3] = Half-life was evaluated in plasma of rat; format: ADME, organism-based
Homo sapiens = species on record: Homo sapiens; test: Compound was tested for its ability to inhibit calcium influx in human U937 cells; format: functional, cell-based; details: U-937
[4] = Volume of distribution after intravenous administration was evaluated in rat; format: ADME, organism-based; details: in vivo, read-out: Vdss
Cavia porcellus [5] = test: Compound was tested for its ability to block antigen induced airway obstruction in guinea pig at dose 1 mg/kg at 2 hr; format: functional

Compound	Clp (Rattus norvegicus)	Ki [1]	inhibition in vivo at 1 mg/kg (Cavia porcellus [2])	half-life [3]	IC50 (Homo sapiens)	Vd [4]	inhibition in vivo at 1 mg/kg (Cavia porcellus [5])
COc1ccc(NS(=O)(=O)C(F)(F)F)cc1C[C@H]1[C@@H](O)c2cc(OCc3ccc4ccc(Cl)cc4n3)ccc2OC1(C)C	6.7 mL/min/kg	4 nM	57.9%	216 min	0.5 nM	1.6 L/kg	–
CC1(C)Oc2ccc(OCc3nc4cc(F)c(F)cc4s3)cc2[C@H](O)[C@@H]1Cc1cc(NS(=O)(=O)C(F)(F)F)ccc1Cl	–	4 nM	–	–	17 nM	–	–
O=C(Nc1cccc2c(=O)cc(-c3nnn[nH]3)oc12)c1ccc(OCCCCc2ccccc2)cc1	–	–	50.1%	–	1 nM	–	–
C[C@H]1Oc2ccc(OCc3nc4cc(F)ccc4s3)cc2[C@H](O)[C@@H]1Cc1cccc(NS(=O)(=O)C(F)(F)F)c1	–	–	66.5%	–	8 nM	–	–
CC1(C)Oc2ccc(OCc3nc4cc(F)c(F)cc4s3)cc2[C@H](O)[C@@H]1Cc1cccc(NS(=O)(=O)C(F)(F)F)c1	–	7 nM	–	–	2 nM	–	45.8%
COc1ccc(NS(=O)(=O)C(F)(F)F)cc1C[C@H]1[C@@H](O)c2cc(/C=C/c3ccc4ccc(Cl)cc4n3)ccc2OC1(C)C	–	5 nM	–	–	0.2 nM	–	40.8%
COc1ccc(NS(=O)(=O)C(F)(F)F)cc1C[C@H]1[C@@H](O)c2cc(OCc3nc4cc(F)c(F)cc4s3)ccc2OC1(C)C	16 mL/min/kg	2 nM	–	234 min	0.3 nM	3.8 L/kg	37.8%
O=C(O)c1cccc(C[C@@H]2COc3ccc(OCc4nc5cc(F)ccc5s4)cc3[C@@H]2O)c1	3.3 mL/min/kg	14 nM	–	78 min	310 nM	0.4 L/kg	56%
COc1cc(C(=O)NS(=O)(=O)c2ccccc2C)ccc1Cc1cn(C)c2ccc(NC(=O)OC3CCCC3)cc12 [ZAFIRLUKAST]	–	–	–	–	1 nM	–	51.6%
